According to patent EP1200406B1, “CYCLIC AMIDES AND IMIDES HAVING SELECTIVE ANTAGONIST ACTIVITY AT ALPHA-1D ADRENERGIC RECEPTOR” (RECORDATI INDUSTRIA CHIMICA E FARMACEUTICA S.p.a., priority 1999, dated 2001):

Biological target: T1, human recombinant α1b adrenoceptor (Homo sapiens, UniProt P35368)
T1 construct: expressed in transfected cells; host or cells: CHO cells (membranes)
T1 sequence (P35368 1-520): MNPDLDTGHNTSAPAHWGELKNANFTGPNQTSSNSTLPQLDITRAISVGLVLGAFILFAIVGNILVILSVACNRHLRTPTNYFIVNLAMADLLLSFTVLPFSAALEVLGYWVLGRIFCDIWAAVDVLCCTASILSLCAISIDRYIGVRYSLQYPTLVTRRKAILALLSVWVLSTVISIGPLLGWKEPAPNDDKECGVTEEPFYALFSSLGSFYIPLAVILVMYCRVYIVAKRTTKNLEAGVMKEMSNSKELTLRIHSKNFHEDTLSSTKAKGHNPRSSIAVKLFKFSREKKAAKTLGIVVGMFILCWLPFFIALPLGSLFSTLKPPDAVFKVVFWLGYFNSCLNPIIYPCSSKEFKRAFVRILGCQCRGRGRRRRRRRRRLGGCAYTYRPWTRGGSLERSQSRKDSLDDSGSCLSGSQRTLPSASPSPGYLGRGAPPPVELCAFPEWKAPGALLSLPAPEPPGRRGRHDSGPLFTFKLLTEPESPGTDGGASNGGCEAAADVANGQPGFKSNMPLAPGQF
Assay: Radioligand binding ([3H]prazosin) on membranes of CHO cells expressing cloned α1b adrenoceptor
Settings: human cloned receptor, CHO cell membranes, 0.2 nM [3H]prazosin; read-out: Affinity (Ki) α1b
Protocol: The determination of affinity for cloned subtypes of human α1 adrenergic receptors was performed in membranes from CHO cells (chinese hamster ovary cells) transfected by electroporation with DNA expressing the genes encoding each α1-adrenoceptor subtype, namely α1a, α1b and α1d.. Cloning and stable expression of the human α1-adrenoceptor gene were performed as previously described (Testa et al., Pharmacol. Comm. 6, 79-86 (1995)). CHO cell membranes were incubated in […] Tris pH 7.4 with 0.2 nM [^3H]prazosin, in a final volume of 1.02 ml for 30 minutes at 25°C, in the absence or presence of competing drugs (1 pM-10 µM). Non-specific binding was determined in the presence of 10 µM phentolamine. Incubation was stopped by addition of ice-cold Tris buffer and rapid filtration through 0.2% polyethyleneimine pretreated Schleicher & Schuell GF52 filters. Genomic clone G-21 coding for the human 5-HT1A-serotoninergic receptor was stably transfected in a human cell line (HeLa) (Fargin et al., J. Biol. Chem. 284, 14848-14852 (1989)). The HeLa cells were grown as monolayers in Dulbecco's modified Eagle's medium (DMEM), supplemented with 10% foetal calf serum and gentamicin (100 µg/ml), 5% CO2, at 37°C. The cells were detached from the growth flask at 95% confluence by a cell scraper and were lysed in ice-cold 5 mM Tris and 5-mM EDTA buffer (pH 7.4). The homogenates were centrifuged at 40000 x g x 20 minutes and the membranes were re-suspended in a small volume of ice-cold 5 mM Tris and 5-mM EDTA buffer (pH 7.4) and immediately frozen and stored at -70°C until use. On the experiment day, the cell membranes were re-suspended in a buffer containing 50 mM Tris (pH 7.4), 2.5 mM MgCl2, 10 µM pargyline (Fargin et al., Nature 335, 358-360 (1988)). […] The incubation was stopped by addition of ice-cold Tris buffer and rapid filtration through 0.2%-polyethyleneimine-pretreated Schleicher & Schuell filters. The inhibition of specific binding of the radioligands by the drugs was analysed to estimate the IC50 value by using the non-linear curve-fitting programme Allfit (De Lean et al., Am. J. Physiol. 235, E97-E102 (1978)). The IC50 value was converted to an affinity constant (Ki) by the equation of Cheng & Prusoff (Biochem. Pharmacol. 22, 3099-3108 (1973)). Data were expressed as mean of Ki.

Row | SMILES | Ki [nM]
1 | O=C1CCCC(=O)N1CCN1CCN(c2cc(Cl)ccc2Cl)CC1 [Example 2, 1-{2-[4-(2,5-Dichlorophenyl)-1-piperazinyl]-ethyl}-piperidinyl-2,6-dione] | 54.1
2 | CCC1(C)CC(=O)N(CCN2CCN(c3cc(Cl)ccc3Cl)CC2)C(=O)C1 [Example 13, 1-{2-[4-(2,5-Dichlorophenyl)-1-piperazinyl]-ethyl}-4-ethyl-4-methylpiperidinyl-2,6-dione] | 43.4
3 | O=C1CC2(CCC2)CC(=O)N1CCN1CCN(c2cc(Cl)ccc2Cl)CC1 [Example 15, 7-{2-[4-(2,5-Dichlorophenyl)-1-piperazinyl]-ethyl}-7-azaspiro[3.5]nonane-6,8-dione] | 79.6
4 | CC(CN1CCN(c2cc(Cl)ccc2Cl)CC1)N1C(=O)CC2(CCCC2)CC1=O (stereo not drawn) [Example 16, 8-{2-[4-(2,5-Dichlorophenyl)-1-piperazinyl]-1-methylethyl}-8-azaspiro[4.5]decane-7,9-dione] | 13.1
5 | O=C1CC2(CCCC2)C(=O)N1CCN1CCN(c2cc(Cl)ccc2Cl)CC1 [Example 14, 2-{2-[4-(2,5-Dichlorophenyl)-1-piperazinyl]-ethyl}-2-azaspiro[4.4]nonane-1,3-dione] | 83.6
6 | O=C1CC2(CCCC2)CC(=O)N1CCN1CCN(c2cc(Cl)ccc2Cl)CC1 [Example 1, 8-{2-[4-(2,5-Dichlorophenyl)-1-piperazinyl]-ethyl}-8-azaspiro[4.5]decane-7,9-dione] | 9.9
7 | N#Cc1ccc(Cl)cc1N1CCN(CCN2C(=O)CC3(CCCC3)CC2=O)CC1 [Example 8, 8-{2-[4-(5-Chloro-2-cyanophenyl)-1-piperazinyl]-ethyl}-8-azaspiro[4.5]decane-7,9-dione] | 17
8 | O=C1CC2(C=CN1CCN1CCN(c3cc(Cl)ccc3Cl)CC1)CCCC2 [Example 20, 8-{2-[4-(2,5-Dichlorophenyl)-1-piperazinyl]-ethyl}-8-azaspiro[4.5]dec-9,10-en-7-one] | 15.8
9 | O=C1CC2(CCCC2)CC(=O)N1CCN1CCC(c2cc(Cl)ccc2Cl)CC1 [Example 17, 8-{2-[4-(2,5-Dichlorophenyl)-1-piperidinyl]-ethyl}-8-azaspiro[4.5]decane-7,9-dione] | 37.6

Further lines, results first:

Row | Ki [nM] | SMILES
10 | 10.1 | O=C1CC2(CCCC2)CC(=O)N1CCN1CCN(c2cc(F)ccc2Cl)CC1 [Example 9, 8-{2-[4-(2-Chloro-5-fluorophenyl)-1-piperazinyl]-ethyl}-8-azaspiro[4.5]decane-7,9-dione]
11 | 119 | Cc1ccc(F)c(N2CCN(CCN3C(=O)CC4(CCCC4)CC3=O)CC2)c1 [Example 4, 8-{2-[4-(2-Fluoro-5-methylphenyl)-1-piperazinyl]-ethyl}-8-azaspiro[4.5]decane-7,9-dione]
12 | 47.5 | O=C1CC2(CCCC2)CC(=O)N1CCN1CCN(c2cc(Br)ccc2Br)CC1 [Example 7, 8-{2-[4-(2,5-Dibromophenyl)-1-piperazinyl]-ethyl}-8-azaspiro[4.5]decane-7,9-dione]
13 | 168 | Cc1ccc(C)c(N2CCN(CCN3C(=O)CC4(CCCC4)CC3=O)CC2)c1 [Example 5, 8-{2-[4-(2,5-Dimethylphenyl)-1-piperazinyl]-ethyl}-8-azaspiro[4.5]decane-7,9-dione]
14 | 22.7 | O=C1CC2(CCCC2)CCN1CCN1CCN(c2cc(F)c(F)cc2F)CC1 [Example 24, 8-{2-[4-(2,4,5-Trifluorophenyl)-1-piperazinyl]-ethyl}-8-azaspiro[4.5]decane-7-one]
15 | 448 | O=C1CC2(CCCC2)CC(=O)N1CCN1CCN(c2cc(I)ccc2Cl)CC1 [Example 10, 8-{2-[4-(2-Chloro-5-iodophenyl)-1-piperazinyl]-ethyl}-8-azaspiro[4.5]decane-7,9-dione]
16 | 52.9 | O=C1CC2(CCCCC2)CC(=O)N1CCN1CCN(c2cc(Cl)ccc2Cl)CC1 [Example 11, 3-{2-[4-(2,5-Dichlorophenyl)-1-piperazinyl]-ethyl}-3-azaspiro[5.5]undecane-2,4-dione]
17 | 915 | CN(CCN1C(=O)CC2(CCCC2)CC1=O)CCN(C)c1cc(Cl)ccc1Cl [Example 18, N-(2,5-Dichlorophenyl)-N'-{2-(7,9-dioxo-8-azaspiro[4.5]decane-8-yl)-ethyl}-N,N'-dimethyl-1,2-diaminoethane]
18 | > 1000 | O=C1CC2(CCCC2)CC(=O)N1CCN1CCN(c2cc(C(F)(F)F)ccc2F)CC1 [Example 6, 8-{2-[4-(2-Fluoro-5-trifluoromethylphenyl)-1-piperazinyl]-ethyl}-8-azaspiro[4.5]decane-7,9-dione]
